Experimental findings from patent US9845310B2 (priority 2015, dated 2017) are described below.

Read-outs that look alike come from different tables or passages of the source.

One assay has as its target APJ (Homo sapiens (Human), UniProt P35414). The assay can be described thus: [35S]GTPγS binding assay on membranes from CHO cells stably expressing human APJ receptor. It is filed as biochemical. Background: GTPγS is a poorly hydrolysed GTP analogue; its binding reports G protein activation.
Assay [1] deals with naive Sprague Dawley rat hearts. The conditions noted are these: ex vivo isolated perfused rat heart, percent change over vehicle; for Isolated Heart Assay dP/dtmax(%): contractility; for Isolated Heart Assay dP/dtmin(%): relaxation (lusitropic).
The mark [2] stands for this setting: read-out: Activity hAPJ SPA EC50 IP.

APJ, sequence (P35414 whole entry, the tested form may be a part): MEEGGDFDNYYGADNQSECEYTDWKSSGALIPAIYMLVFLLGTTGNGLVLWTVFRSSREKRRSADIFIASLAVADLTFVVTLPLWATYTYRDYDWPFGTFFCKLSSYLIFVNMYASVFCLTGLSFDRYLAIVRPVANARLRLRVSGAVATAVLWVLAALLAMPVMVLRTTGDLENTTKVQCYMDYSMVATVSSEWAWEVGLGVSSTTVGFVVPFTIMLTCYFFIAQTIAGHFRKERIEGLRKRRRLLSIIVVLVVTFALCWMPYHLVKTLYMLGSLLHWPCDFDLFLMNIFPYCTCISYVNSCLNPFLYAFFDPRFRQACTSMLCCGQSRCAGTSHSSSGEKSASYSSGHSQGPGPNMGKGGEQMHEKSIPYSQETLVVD
Protocol for APJ: A GTPγS binding assay was performed on membranes prepared from CHO cells stably expressing human APJ receptor. The optimum experimental conditions for the concentrations of GDP, MgCl2, and NaCl in the assay buffer were initially determined. The assay was performed in assay buffer [20 mM HEPES, pH 7.5, 5 mM MgCl2, and 0.1% (w/v) BSA with 200 mM NaCl, 3 M GDP] and membranes expressing human APJ receptor/well along with WGA PS beads. The reaction was initiated by addition of 0.2 nM [^35S]GTPγS (Perkin Elmer Life and Analytical Sciences, Waltham USA) in the absence or presence of various ligands and incubated at RT for 90 min. Nonspecific binding was determined in the presence of 100 M GTPγS and was always less than 0.2% of total binding.

As to `COc1cccc(OC)c1-n1c(NS(=O)(=O)[C@@H](C)[C@H](C)c2ncc(C)cn2)nnc1-c1cncc(C2CC2)c1` [Example 734.0, (2S,3R)-N-(5-(5-cyclopropylpyridin-3-yl)-4-(2,6-dimethoxyphenyl)-4H-1,2,4-triazol-3-yl)-3-(5-methylpyrimidin-2-yl)butane-2-sulfonamide], on APJ (Activity hAPJ SPA EC50 IP (μM)), it took 0.002 µM to reach a half-maximal effect (EC50).

In turn, `COc1cccc(-c2nnc(NS(=O)(=O)[C@@H](C)[C@H](OC)c3ncc(C)cn3)n2-c2c(OC)ccnc2OC)n1` (single isomer, unassigned) [Example 771.0] came in with an EC50 on APJ (Activity hAPJ SPA EC50 IP (μM)) of 0.002 µM.

As for `COc1cccc(OC)c1-n1c(NS(=O)(=O)[C@@H]2CCCO[C@@H]2c2ncc(C)cn2)nnc1-c1cncc(C)c1` (single isomer, unassigned) [Example 645.0], the half-maximal effective concentration (EC50) on APJ (setting [2]) was 0.06 µM.

For `COc1cccc(-c2nnc(NS(=O)(=O)[C@H](C)[C@@H](O)c3cc(C)n(C)n3)n2-c2c(OC)cccc2OC)n1` (racemic) [Example 260.0, (1S,2R)-N-(4-(2,6-dimethoxyphenyl)-5-(6-methoxypyridin-2-yl)-4H-1,2,4-triazol-3-yl)-1-(1,5-dimethyl-1H-pyrazol-3-yl)-1-hydroxypropane-2-sulfonamide and (1R,2S)-N-(4-(2,6-dimethoxyphenyl)-5-(6-methoxypyridin-2-yl)-4H-1,2,4-triazol-3-yl)-1-(1,5-dimethyl-1H-pyrazol-3-yl)-1-hydroxypropane-2-sulfonamide], at APJ (Activity hAPJ SPA EC50 IP (μM)), the EC50 stood at 0.0024 µM.

Consider `COc1cnc([C@H](O)[C@@H](C)S(=O)(=O)Nc2nnc(-c3cccnc3)n2-c2c(OC)cccc2OC)cn1` (mixture of isomers) [Example 703.0, (1R,2S)-N-(4-(2,6-dimethoxyphenyl)-5-(3-pyridinyl)-4H-1,2,4-triazol-3-yl)-1-hydroxy-1-(5-methoxy-2-pyrazinyl)-2-propanesulfonamide and (1S,2R)-N-(4-(2,6-dimethoxyphenyl)-5-(3-pyridinyl)-4H-1,2,4-triazol-3-yl)-1-hydroxy-1-(5-methoxy-2-pyrazinyl)-2-propanesulfonamide], for which the EC50 at APJ (Activity hAPJ SPA EC50 IP (μM)) came to 0.002 µM.

With `CCO[C@@H](c1cnc(C)cn1)[C@@H](C)S(=O)(=O)Nc1nnc(-c2cccc(OC)n2)n1-c1c(OC)cccc1OC` (single isomer, unassigned) [Example 588.0, (1S,2R)-N-(4-(2,6-dimethoxyphenyl)-5-(6-methoxy-2-pyridinyl)-4H-1,2,4-triazol-3-yl)-1-ethoxy-1-(5-methyl-2-pyrazinyl)-2-propanesulfonamide or (1R,2S)-N-(4-(2,6-dimethoxyphenyl)-5-(6-methoxy-2-pyridinyl)-4H-1,2,4-triazol-3-yl)-1-ethoxy-1-(5-methyl-2-pyrazinyl)-2-propanesulfonamide], the EC50 at APJ (setting [2]) came out at 0.00052 µM.

In the case of `COc1cccc(-c2nnc(NS(=O)(=O)[C@@H]3CCCO[C@@H]3c3ncc(C)cn3)n2-c2c(OC)cccc2OC)n1` (single isomer, unassigned) [Example 656.0], the EC50 at APJ (setting [2]) is 0.013 µM.

Consider `COc1cccc(OC)c1-n1c(NS(=O)(=O)[C@H](C)[C@H](OC(C)C)c2cnc(C)cn2)nnc1-c1cccc(C)n1` (single isomer, unassigned) [Example 824.0, (1S,2S)-N-(4-(2,6-dimethoxyphenyl)-5-(6-methylpyridin-2-yl)-4H-1,2,4-triazol-3-yl)-1-isopropoxy-1-(5-methylpyrazin-2-yl)propane-2-sulfonamide or (1R,2R)-N-(4-(2,6-dimethoxyphenyl)-5-(6-methylpyridin-2-yl)-4H-1,2,4-triazol-3-yl)-1-isopropoxy-1-(5-methylpyrazin-2-yl)propane-2-sulfonamide], for which the 50% effective concentration (EC50) at APJ (Activity hAPJ SPA EC50 IP (μM)) amounted to 0.00047 µM.

With `COc1cccc(OC)c1-n1c(NS(=O)(=O)[C@@H](C)[C@H](OC)c2ncnn2C)nnc1-c1cncc(C)c1` (single isomer, unassigned) [Example 781.0, (1R,2S)-N-(4-(2,6-dimethoxyphenyl)-5-(5-methyl-3-pyridinyl)-4H-1,2,4-triazol-3-yl)-1-methoxy-1-(1-methyl-1H-1,2,4-triazol-5-yl)-2-propanesulfonamide or (1S,2R)-N-(4-(2,6-dimethoxyphenyl)-5-(5-methyl-3-pyridinyl)-4H-1,2,4-triazol-3-yl)-1-methoxy-1-(1-methyl-1H-1,2,4-triazol-5-yl)-2-propanesulfonamide], the concentration for a half-maximal effect (EC50) at APJ (Activity hAPJ SPA EC50 IP (μM)) came to 0.59 µM.

Take `COc1cccc(-c2nnc(NS(=O)(=O)C[C@H](O)c3ccc(F)cc3S(C)(=O)=O)n2-c2c(OC)cccc2OC)n1` (mixture of isomers) [Example 267.0, (R)-N-(4-(2,6-dimethoxyphenyl)-5-(6-methoxypyridin-2-yl)-4H-1,2,4-triazol-3-yl)-2-(4-fluoro-2-(methylsulfonyl)phenyl)-2-hydroxyethanesulfonamide and (S)-N-(4-(2,6-dimethoxyphenyl)-5-(6-methoxypyridin-2-yl)-4H-1,2,4-triazol-3-yl)-2-(4-fluoro-2-(methylsulfonyl)phenyl)-2-hydroxyethanesulfonamide]: the EC50 on APJ (Activity hAPJ SPA EC50 IP (μM)) was 0.00015 µM.

With `COc1cccc(-c2nnc(NS(=O)(=O)[C@@H](C)[C@H](OC(C)C)c3ncc(C)cn3)n2-c2c(OC)cccc2OC)n1` (single isomer, unassigned) [Example 96.0], the EC50 on APJ (Activity hAPJ SPA EC50 IP (μM)) amounted to 0.00026 µM.

`COc1cccc(-c2nnc(NS(=O)(=O)[C@@H]3CCCO[C@@H]3c3ncc(C)cn3)n2-c2c(OC)cccc2OC)n1` (single isomer, unassigned) [Example 654.0]: the EC50 at APJ (setting [2]) stood at 0.15 µM.

Turning to `COc1cccc(-c2nnc(NS(=O)(=O)[C@H](C)[C@H](OC(C)C)c3cnc(C)cn3)n2-c2c(OC)cccc2OC)n1` (single isomer, unassigned) [Example 825.0, (1S,2S)-N-(4-(2,6-dimethoxyphenyl)-5-(6-methoxypyridin-2-yl)-4H-1,2,4-triazol-3-yl)-1-isopropoxy-1-(5-methylpyrazin-2-yl)propane-2-sulfonamide or (1R,2R)-N-(4-(2,6-dimethoxyphenyl)-5-(6-methoxypyridin-2-yl)-4H-1,2,4-triazol-3-yl)-1-isopropoxy-1-(5-methylpyrazin-2-yl)propane-2-sulfonamide], the EC50 on APJ (setting [2]) was 0.00015 µM.

For `COc1cccc(OC)c1-n1c(NS(=O)(=O)[C@@H](C)[C@H](OC)c2ncnn2C)nnc1-c1cncc(C)c1` (single isomer, unassigned) [Example 782.0, (1R,2S)-N-(4-(2,6-dimethoxyphenyl)-5-(5-methyl-3-pyridinyl)-4H-1,2,4-triazol-3-yl)-1-methoxy-1-(1-methyl-1H-1,2,4-triazol-5-yl)-2-propanesulfonamide or (1S,2R)-N-(4-(2,6-dimethoxyphenyl)-5-(5-methyl-3-pyridinyl)-4H-1,2,4-triazol-3-yl)-1-methoxy-1-(1-methyl-1H-1,2,4-triazol-5-yl)-2-propanesulfonamide], on APJ (Activity hAPJ SPA EC50 IP (μM)), the EC50 was determined as 0.028 µM.

As for `COc1cccc(OC)c1-n1c(NS(=O)(=O)[C@@H](C)[C@H](C)c2ncc(F)cn2)nnc1-c1cccnc1` (racemic) [Example 184.0, (2R,3S)-N-(4-(2,6-dimethoxyphenyl)-5-(3-pyridinyl)-4H-1,2,4-triazol-3-yl)-3-(5-fluoro-2-pyrimidinyl)-2-butanesulfonamide or (2S,3R)-N-(4-(2,6-dimethoxyphenyl)-5-(3-pyridinyl)-4H-1,2,4-triazol-3-yl)-3-(5-fluoro-2-pyrimidinyl)-2-butanesulfonamide], in assay [1], the “Isolated Heart Assay dP/dtmax(%)” value is reported as 14.5% and the “Isolated Heart Assay dP/dtmin(%)” value was 14.0%.

In the case of `COc1cccc(OC)c1-n1c(NS(=O)(=O)[C@H](C)[C@@H](OC)c2ccc(Cl)cn2)nnc1-c1cccnc1` (single isomer, unassigned) [Example 531.0, (1S,2R)-1-(5-chloro-2-pyridinyl)-N-(4-(2,6-dimethoxyphenyl)-5-(3-pyridinyl)-4H-1,2,4-triazol-3-yl)-1-methoxy-2-propanesulfonamide or (1R,2S)-1-(5-chloro-2-pyridinyl)-N-(4-(2,6-dimethoxyphenyl)-5-(3-pyridinyl)-4H-1,2,4-triazol-3-yl)-1-methoxy-2-propanesulfonamide], in assay [1], the “Isolated Heart Assay dP/dtmax(%)” value amounted to 4.1% and the “Isolated Heart Assay dP/dtmin(%)” value turned out to be 1.9%.

For `CCO[C@H](c1ncc(F)cn1)[C@H](C)S(=O)(=O)Nc1nnc(-c2cccnc2)n1-c1c(OC)cccc1OC` [Example 51.0, (1R,2S)-N-(4-(2,6-dimethoxyphenyl)-5-(3-pyidinyl)-4H-1,2,4-triazol-3-yl)-1-ethoxy-1-(5-fluoro-2-pyrimidinyl)-2-propanesulfonamide], in assay [1], the “Isolated Heart Assay dP/dtmax(%)” value was 2.0% and the “Isolated Heart Assay dP/dtmin(%)” value was 2.0%.

As for `COc1cccc(-c2nnc(NS(=O)(=O)[C@@H](C)[C@H](C)c3cnc(C)cn3)n2-c2c(OC)ncnc2OC)n1` [Example 799.0, (2S,3R)-N-(4-(4,6-dimethoxy-5-pyrimidinyl)-5-(6-methoxy-2-pyridinyl)-4H-1,2,4-triazol-3-yl)-3-(5-methyl-2-pyrazinyl)-2-butanesulfonamide], in assay [1], the “Isolated Heart Assay dP/dtmax(%)” value is recorded as 7.8% and the “Isolated Heart Assay dP/dtmin(%)” value is recorded as 14.1%.

With `COc1cccc(OC)c1-n1c(NS(=O)(=O)[C@@H](C)[C@H](OC)c2ncc(F)cn2)nnc1-c1cccnc1` [Example 81.0, (1R,2S)-N-(4-(2,6-dimethoxyphenyl)-5-(3-pyridinyl)-4H-1,2,4-triazol-3-yl)-1-(5-fluoro-2-pyrimidinyl)-1-methoxy-2-propanesulfonamide], in assay [1], the “Isolated Heart Assay dP/dtmax(%)” value stood at 14.0% and the “Isolated Heart Assay dP/dtmin(%)” value was 15.0%.

As to `COc1cccc(OC)c1-n1c(NS(=O)(=O)[C@H](C)[C@@H](O)c2cnc(C)cn2)nnc1-c1cncc(C)c1` (single isomer, unassigned) [Example 569.0, (1S,2R)-N-(4-(2,6-dimethoxyphenyl)-5-(5-methyl-3-pyridinyl)-4H-1,2,4-triazol-3-yl)-1-hydroxy-1-(5-methyl-2-pyrazinyl)-2-propanesulfonamide or (1R,2S)-N-(4-(2,6-dimethoxyphenyl)-5-(5-methyl-3-pyridinyl)-4H-1,2,4-triazol-3-yl)-1-hydroxy-1-(5-methyl-2-pyrazinyl)-2-propanesulfonamide], in assay [1], the “Isolated Heart Assay dP/dtmax(%)” value turned out to be 12.4% and the “Isolated Heart Assay dP/dtmin(%)” value amounted to 12.7%.

In general, EC50 refers to the concentration needed to bring the measured effect to its halfway point.
